Results reported in the NIST ThermoML archive (doi:10.1021/je900414p).

Test: xn = mol fraction of the nth substance listed
Conditions: 333.15 K, Liquid

CCOS(=O)(=O)[O-].CCn1cc[n+](C)c1 [1-ethyl-3-methylimidazolium ethyl sulfate] + CCO
mass density [kg/m3]
Conditions | 15000 kPa | 20000 kPa | 25000 kPa | 30000 kPa | 35000 kPa
x1 = 0.05056 | – | 844.27 | 848.14 | 851.85 | 855.41
x1 = 0.103 | – | 901.61 | 905.17 | 908.61 | 911.93
x1 = 0.1247 | – | 922.44 | 925.91 | 929.24 | 932.47
x1 = 0.2126 | – | 990.73 | 993.88 | 996.92 | 999.88
x1 = 0.2919 | – | 1038.53 | 1041.42 | 1044.25 | 1046.98
x1 = 0.3185 | – | 1051.83 | 1054.66 | 1057.43 | 1060.13
x1 = 0.4198 | 1092.49 | 1095.2 | 1097.84 | 1100.42 | 1102.94
x1 = 0.4847 | 1114.72 | 1117.29 | 1119.85 | 1122.34 | 1124.77
x1 = 0.5713 | 1140.25 | 1142.73 | 1145.17 | 1147.56 | 1149.9
x1 = 0.6827 | 1167.03 | 1169.4 | 1171.73 | 1174 | 1176.25
x1 = 0.7919 | 1188.4 | 1190.67 | 1192.91 | 1195.12 | 1197.28
x1 = 0.9317 | 1210.35 | 1212.54 | 1214.7 | 1216.82 | 1218.92
